The values that follow come from patent US20210355418A1, “ELECTRODE HAVING NANO STRUCTURE AT TIP” (Ion Chat Research Corporate, priority 2018, published 2021).

Common to all, as to type: cell-based
In assay [1] the test system is NG108-15 neurons. In words: Action potential recording with 3-electrode MagEle. As to conditions: 10 uM; cells differentiated by 2% FBS, 10 μM Forskolin. The text has this: When manufacturing multiple electrodes using MagEle, two types of magnets, a fixed magnet, and an electrode magnet, are used. Wrap the fixed electrodes in a non-conductive material such as parafilm, and attach strip-shaped electrodes made of 2 to 4 pieces of aluminum foil.
This aluminum foil electrode is fixed by magnetic force to the electrode magnet from below, the side surface of the electrode magnet other than facing the cells is wrapped with a non-conductive material such as parafilm to insulate it, and “Clip on ground” is attached above the fixed magnet. A holder for fixing the manipulator is attached (FIG. 20).
Recording was performed from NG108-15 neurons differentiated by 2% FBS, 10 μM Forskolin treatment using the 3-electrode MagEle prepared in (8-1) above (FIG. 22).

Assay [2] relates to NG108-15 cells. Put plainly: Intracellular potential recording of cultured nerve cells with C-M magnet electrode. The note with it: final external fluid concentration 800 μM; 2 days neural differentiation. The method, then: NG108-15 cells were used for the purpose of showing that recording is possible from cultured nerve cells. NG108-15 cells (neuroblastoma-glioma hybrid cells) were cultured in a culture medium containing DMEM (Sigma-Aldrich), HAT supplement (Thermofisher) and 10% FBS (Biowest). NG108-15 was seeded on a cover glass that was coated with 0.1% Polyethyleneimine (pH8.4, 150 mM Sodium Tetra-Borate (Wako)), and cultured in the culture medium, in which FBS concentration was reduced to 5% from the above culture medium, and the nerve differentiation was induced by adding 500 μM Ibuprofen (Wako). […]
PEI and PEG-gold coated magnetic nanoparticles were mixed and left at room temperature for three hours. This mixed solution is moved to the cell-adhesive surface of the neodymium magnet and left for additional fifteen minutes to magnetically bond the gold nanoparticles to the neodymium magnet electrode. […]
Spontaneous action potentials were recorded by placing C-M electrode on cells seeded on coverslips. […]
In addition to the spontaneous action potential, the following experiment was conducted to confirm whether the neuronal activity by the neurotransmitter glutamate can be recorded. […] Glutamic acid was administered to the extracellular fluid (final external fluid concentration 800 μM), and the response mediated by glutamate receptors was recorded. […]

Assay [3] concerns differentiated NG108-15 cells. In words: Intracellular recording with integrated electrode having nano-protrusion structure at the tip, pressed by manipulator. The note with it: 10 mM, integrated electrode fixed with manipulator. The method, then:
More specifically, 0.5 μl PEI (10 mg/ml), 20 ul gold-coated magnetic nanoparticles (NITmagold Cit manufactured by na noimmunotech), and 5 μl of 5 times the concentration HBPS (final concentration of calcium and magnesium is 1 mM) were mixed. It was kept at room temperature for 30 minutes or more. The recording surface of the magnet electrode is fixed upward, the mixed solution is dropped onto the recording surface, adsorbed by magnetic force, and the solution is evaporated at room temperature (Magele).
As shown in the middle drawing of FIG. 3, the entire side surface of the electrode was inserted into a silicon tube (Tyg on) of an insulator to cover it, and the area in contact with the extracellular fluid was further covered with aluminum foil as a ground material. Through the above process, the integrated electrode of the present invention was produced.
The integrated electrode was pressed onto the differentiated NG108-15 cells using a manipulator (FIG. 2), and the integrated electrode was fixed in a state where the nano-protrusion at the tip penetrated the cell membrane and the cells were not crushed. […]
After activating the differentiated NG108-15 cells with 10 mM glutamate, the intracellular potential was measured with an integrated electrode fixed with a manipulator.

The subject of assay [4] is differentiated NG108-15 cells. Put plainly: Intracellular potential measurement by patch clamp method. As to conditions: 10 mM. How it is done:
More specifically, a solution containing 2% H.A.T. in DMEM (Sigma-Aldrich) containing 10% FBS (Biowest) was used as the culture medium. According to the literature, in order to differentiate NG108-15 cells into nerve-like cells, FBS in the culture medium is reduced to 2% and the intracellular cAMP concentration is increased by applying the membrane-permeable cAMP (Dibutyryl-cAMP), but in this protocol, it was replaced with 10 uM forskolin. The culture medium was changed at intervals of 2 to 3 days.
This experiment verified that the intracellular potential was induced by glutamate in NG108-15 differentiated cells adjusted in (1-1) using the conventional patch-clamp method.
More specifically, using a glass pipette filled with an intracellular electrolyte solution containing 10 mM glutamate to differentiated NG108-15 cells, the cell membranes were tightly adhered and the glass pipette and cells were electrically integrated.

In assay [5] the test system is cardiomyocyte-like cells (iCell Cardiomyocyte2). In words: Action potential recording of cardiomyocyte-like cells on conductive glass, charge amplifier (CHAMPL) mode. The note with it: final concentration 100 μM in physiological saline, room temperature. The method, then:
Experiments were conducted using myocardial-like cells (iCell Cardiomyocyte2, CDI) as a typical example of cells with low adhesion efficiency to the surface of conductive glass. In order to improve the adhesiveness, the cells were cultured on the surface of conductive glass coated with collagen (Collagen) in a grid pattern in advance. Gold-coated magnetic nanoparticles were introduced into myocardial-like cells and penetrated the cell membrane by a magnetic field. Sodium channels were activated by sodium channel openers such as veratridine and the resulting action potentials were recorded. This experiment was performed at room temperature. […]
Next, using SLO, gold-coated magnetic nanoparticles were introduced into the cell. […] Two days later, the culture medium was replaced with physiological saline before the experiment, and the action potentials of the cells were recorded at room temperature using the charge amplifier mode (ChargeAmpLifier (CHAMPL) mode) (FIG. 10).
However, since the spontaneous action potential could not be observed in this sample (data not shown), Veratridine (Sigma-Aldrich), which acts as a sodium channel opener, was administered to a final concentration of 100 μM in physiological saline. […] Slow depolarization was observed 40 seconds after Veratridine administration, followed by spontaneous action potentials recorded (FIG. 11).

On to `CC(=O)OCC[N+](C)(C)C` [Ach], for which, in assay [1], the “activity of nerve cell groups” value is listed as “activity of all nerve cell groups was increased”.
Take `N[C@@H](CCC(=O)O)C(=O)O` [Glutamate, Glutamic acid]: in assay [2], the “membrane potential response mediated by glutamate receptors” value is “depolarization (upward change) response of the membrane potential” and the “time for membrane potential change to return to baseline” value is “about 90 seconds”. Also, the intracellular potential response result in assay [3] is “Action potentials and slow depolarization were recorded”. Also, the intracellular potential response result in assay [4] is “induced a slow depolarization and action potentials”.
Take `COc1ccc(C(=O)O[C@H]2CC[C@@]3(C)[C@@H]4CC[C@H]5[C@]6(O)C[C@H](O)[C@@]7(O)[C@@H](CN8C[C@@H](C)CC[C@H]8[C@@]7(C)O)[C@]6(O)C[C@@]53O[C@]24O)cc1OC` [Veratridine]: the “time to slow depolarization after administration” value in assay [5] worked out at 40 s.
